Data on one molecule can be found in ChEMBL document CHEMBL5537122, “Design, synthesis, and biological evaluation of 4-(2-fluorophenoxy)-7-methoxyquinazoline derivatives as dual EGFR/c-Met inhibitors for the treatment of NSCLC” (Eur J Med Chem, 2024).

SMILES strings stand for the structures. Active and inactive are the calls of the source. No cut-off for these calls is given here.

Data set [1] relates to A549. Briefly: Induction in apoptosis in human A549 cells overexpressing c-MET assessed as necrotic cells at 2.5 uM incubated for 24 hrs by Annexin V-FITC/Propidium Iodide staining based flow cytometry analysis (reference value: 3.22 %). It counts as functional.
The test system of data set [2] is A549. Nature of the data set: Antiproliferative activity against human A549 cells overexpressing c-Met and EGFR assessed as reduction in cell viability incubated for 72 hrs by MTT assay. It counts as functional, cell-based. The conditions noted are these: A549, 72 h.
The subject of data set [3] is A549. Briefly: Induction of cell cycle arrest in human A549 cells overexpressing c-MET assessed as accumulation of cells at G1/G0 phase at 2.5 uM incubated for 24 hrs by RNase A/propidium iodide staining based flow cytometric analysis (reference value: 49.24 %). The data set is classed as functional. Background: In flow cytometry, cells or beads pass a laser one at a time.

The target in data set [4] is Fibroblast growth factor receptor 4 (Homo sapiens) (UniProt P22455). Nature of the data set: Inhibition of FGFR4 (unknown origin) at 10 uM.
Sequence of Fibroblast growth factor receptor 4 (Homo sapiens) (P22455 22-802 limits assumed): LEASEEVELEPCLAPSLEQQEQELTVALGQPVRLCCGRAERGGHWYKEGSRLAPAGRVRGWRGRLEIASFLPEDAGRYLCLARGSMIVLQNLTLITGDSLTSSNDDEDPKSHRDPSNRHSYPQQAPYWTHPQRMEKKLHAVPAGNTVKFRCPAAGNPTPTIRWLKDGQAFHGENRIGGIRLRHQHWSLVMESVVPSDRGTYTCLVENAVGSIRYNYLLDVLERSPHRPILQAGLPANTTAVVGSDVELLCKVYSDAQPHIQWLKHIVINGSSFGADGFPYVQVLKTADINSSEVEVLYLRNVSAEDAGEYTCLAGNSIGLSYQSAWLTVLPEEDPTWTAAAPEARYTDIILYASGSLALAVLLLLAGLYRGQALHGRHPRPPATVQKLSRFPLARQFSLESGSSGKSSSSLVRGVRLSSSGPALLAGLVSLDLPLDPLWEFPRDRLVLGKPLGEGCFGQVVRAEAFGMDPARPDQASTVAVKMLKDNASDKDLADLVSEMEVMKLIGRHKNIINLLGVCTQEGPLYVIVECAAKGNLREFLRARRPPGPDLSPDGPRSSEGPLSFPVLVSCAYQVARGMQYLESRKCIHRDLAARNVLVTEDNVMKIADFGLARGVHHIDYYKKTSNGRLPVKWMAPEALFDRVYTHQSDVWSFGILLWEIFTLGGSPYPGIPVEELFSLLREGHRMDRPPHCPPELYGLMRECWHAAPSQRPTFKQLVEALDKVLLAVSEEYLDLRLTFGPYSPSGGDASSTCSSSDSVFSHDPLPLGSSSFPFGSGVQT
Data set [5] concerns the target T1, Hepatocyte growth factor receptor (Homo sapiens, UniProt P08581). Nature of the data set: Inhibition of c-MET (unknown origin) at 10 uM relative to control.
Data set [6] deals with Proto-oncogene tyrosine-protein kinase ROS (Homo sapiens) (UniProt P08922). Briefly: Inhibition of ROS (unknown origin) at 10 uM.
Sequence of Proto-oncogene tyrosine-protein kinase ROS (Homo sapiens) (P08922 whole entry): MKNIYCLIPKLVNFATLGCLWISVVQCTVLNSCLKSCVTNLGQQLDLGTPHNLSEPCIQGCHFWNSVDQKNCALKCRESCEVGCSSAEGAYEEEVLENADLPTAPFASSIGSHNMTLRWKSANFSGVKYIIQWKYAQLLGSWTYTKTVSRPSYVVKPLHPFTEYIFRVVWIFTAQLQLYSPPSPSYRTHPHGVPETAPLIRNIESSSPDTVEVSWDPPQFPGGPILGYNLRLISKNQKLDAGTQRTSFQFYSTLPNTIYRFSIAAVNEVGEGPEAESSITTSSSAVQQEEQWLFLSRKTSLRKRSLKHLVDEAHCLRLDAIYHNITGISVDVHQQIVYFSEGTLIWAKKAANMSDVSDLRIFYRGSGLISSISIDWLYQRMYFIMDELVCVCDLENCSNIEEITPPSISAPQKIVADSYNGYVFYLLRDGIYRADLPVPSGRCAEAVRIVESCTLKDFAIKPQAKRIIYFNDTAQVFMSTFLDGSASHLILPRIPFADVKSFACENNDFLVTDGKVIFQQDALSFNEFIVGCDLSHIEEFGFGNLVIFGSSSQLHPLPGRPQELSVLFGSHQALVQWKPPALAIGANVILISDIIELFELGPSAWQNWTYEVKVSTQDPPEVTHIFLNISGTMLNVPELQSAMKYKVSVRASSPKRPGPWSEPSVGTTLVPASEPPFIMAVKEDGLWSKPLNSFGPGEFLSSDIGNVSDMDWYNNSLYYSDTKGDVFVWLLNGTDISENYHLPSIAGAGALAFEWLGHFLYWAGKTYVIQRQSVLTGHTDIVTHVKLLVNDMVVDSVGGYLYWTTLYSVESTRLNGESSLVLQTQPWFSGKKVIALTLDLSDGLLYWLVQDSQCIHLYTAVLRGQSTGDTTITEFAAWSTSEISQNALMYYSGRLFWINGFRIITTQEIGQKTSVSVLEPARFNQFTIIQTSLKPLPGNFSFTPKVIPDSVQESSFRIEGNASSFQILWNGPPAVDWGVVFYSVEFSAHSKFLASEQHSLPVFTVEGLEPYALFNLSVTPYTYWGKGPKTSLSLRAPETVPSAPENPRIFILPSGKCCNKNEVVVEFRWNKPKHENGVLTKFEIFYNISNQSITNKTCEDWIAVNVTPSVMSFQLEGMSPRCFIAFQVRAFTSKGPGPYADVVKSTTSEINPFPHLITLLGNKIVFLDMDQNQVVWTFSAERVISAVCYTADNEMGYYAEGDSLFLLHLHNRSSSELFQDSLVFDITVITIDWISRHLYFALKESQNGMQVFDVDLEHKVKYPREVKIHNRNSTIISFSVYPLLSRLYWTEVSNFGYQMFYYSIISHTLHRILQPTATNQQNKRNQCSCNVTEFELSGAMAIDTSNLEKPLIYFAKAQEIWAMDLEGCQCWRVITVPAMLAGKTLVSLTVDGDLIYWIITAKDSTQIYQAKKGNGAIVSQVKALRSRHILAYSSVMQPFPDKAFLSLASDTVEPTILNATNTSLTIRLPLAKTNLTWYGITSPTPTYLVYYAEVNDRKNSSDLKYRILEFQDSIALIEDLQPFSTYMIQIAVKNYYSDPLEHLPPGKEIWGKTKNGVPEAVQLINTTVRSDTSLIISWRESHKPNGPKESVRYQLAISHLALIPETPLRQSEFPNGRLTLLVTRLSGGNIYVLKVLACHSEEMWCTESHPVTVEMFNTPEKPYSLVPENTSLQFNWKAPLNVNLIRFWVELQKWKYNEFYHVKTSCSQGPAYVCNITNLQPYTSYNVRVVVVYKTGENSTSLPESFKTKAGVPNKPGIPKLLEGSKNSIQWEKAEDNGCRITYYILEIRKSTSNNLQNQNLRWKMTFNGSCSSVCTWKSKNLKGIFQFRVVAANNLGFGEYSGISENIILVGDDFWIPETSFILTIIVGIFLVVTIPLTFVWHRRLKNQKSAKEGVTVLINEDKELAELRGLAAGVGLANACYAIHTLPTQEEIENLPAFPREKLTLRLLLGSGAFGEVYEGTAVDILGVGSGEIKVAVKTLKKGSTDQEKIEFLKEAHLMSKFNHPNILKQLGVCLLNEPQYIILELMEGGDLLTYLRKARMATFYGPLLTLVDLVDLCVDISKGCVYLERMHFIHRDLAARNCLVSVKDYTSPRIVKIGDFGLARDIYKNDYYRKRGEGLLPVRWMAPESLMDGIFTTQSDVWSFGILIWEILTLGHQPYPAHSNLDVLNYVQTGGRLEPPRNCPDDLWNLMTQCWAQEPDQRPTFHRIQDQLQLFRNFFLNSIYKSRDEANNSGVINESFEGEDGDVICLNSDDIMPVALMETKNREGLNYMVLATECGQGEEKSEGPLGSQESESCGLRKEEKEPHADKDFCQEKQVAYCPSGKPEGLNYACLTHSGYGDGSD
The test system of data set [7] is NCI-H1975. Nature of the data set: Induction in apoptosis in human NCI-H1975 cells assessed as necrotic cells at 1 uM incubated for 24 hrs by Annexin V-FITC/Propidium Iodide staining based flow cytometry analysis (reference value: 1.42 %). It counts as functional.
Data set [8] has as its system A549. Briefly: Induction of cell cycle arrest in human A549 cells overexpressing c-MET assessed as accumulation of cells at G1/G0 phase at 1 uM incubated for 24 hrs by RNase A/propidium iodide staining based flow cytometric analysis (reference value: 49.24 %). It counts as functional.
In data set [9] the target is T1, Hepatocyte growth factor receptor. Briefly: biochemical.
Description: Inhibition of N-terminal GST tagged human recombinant c-Met (956 to end residues) expressed in baculovirus infected Sf9 cells using Poly (4:1 Glu, Tyr) as substrate incubated for 60 mins in presence of ATP by ADP-Glo luminescent assay
Data set [10] deals with A549. Nature of the data set: Downregulation of phosphorylated c-Met protein expression human A549 cells overexpressing c-MET incubated for 24 hrs by Western blotting analysis. As to conditions: dose 1-10 µM. The data set is classed as functional, cell-based.
Data set [11] deals with A549. Briefly: Downregulation of phosphorylated EGFR protein expression level human A549 cells overexpressing c-MET incubated for 24 hrs by Western blotting analysis. It counts as functional, cell-based. As to conditions: dose 1-10 µM. In general terms: In western blotting, separated proteins are transferred to a membrane and probed.
The subject of data set [12] is A549. Briefly: Induction in apoptosis in human A549 cells overexpressing c-MET assessed as viable cells at 2.5 uM incubated for 24 hrs by Annexin V-FITC/Propidium Iodide staining based flow cytometry analysis (reference value: 81.92 %. It counts as functional. The conditions noted are these: read-out: Activity.
Data set [13] deals with A549. Nature of the data set: Inhibition of colony formation in human A549 cells overexpressing c-MET preincubated for 48 hrs followed by media replacement for every 2 days for 14 days by crystal violet staining based microscopic analysis. The data set is classed as functional, cell-based. As to conditions: dose 0.25-2 µM.
Data set [14] has as its target Fibroblast growth factor receptor 2 (Homo sapiens) (UniProt P21802). Nature of the data set: Inhibition of FGFR2 (unknown origin) at 10 uM.
For data set [15], the target named is Serine/threonine-protein kinase Nek2 (Homo sapiens) (UniProt P51955). Nature of the data set: Inhibition of NEK2 (unknown origin) at 10 uM.
Sequence of Serine/threonine-protein kinase Nek2 (Homo sapiens) (P51955 whole entry): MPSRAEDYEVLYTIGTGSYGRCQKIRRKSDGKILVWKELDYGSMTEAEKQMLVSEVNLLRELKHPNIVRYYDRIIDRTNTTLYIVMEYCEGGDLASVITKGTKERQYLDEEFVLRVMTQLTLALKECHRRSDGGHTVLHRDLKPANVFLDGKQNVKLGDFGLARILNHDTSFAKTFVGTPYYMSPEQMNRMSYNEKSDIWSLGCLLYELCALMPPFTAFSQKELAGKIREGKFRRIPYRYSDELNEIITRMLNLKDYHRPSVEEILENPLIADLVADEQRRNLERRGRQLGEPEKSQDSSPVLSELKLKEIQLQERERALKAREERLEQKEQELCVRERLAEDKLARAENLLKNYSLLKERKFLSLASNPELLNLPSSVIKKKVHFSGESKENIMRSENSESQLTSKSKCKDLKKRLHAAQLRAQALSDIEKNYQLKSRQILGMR
Data set [16] in a line: Acute toxicity in KM mouse assessed as cell damage or necrosis in kidney at 100 mg/kg, IG qa administered for 7 days and measured on day 8 by hematoxylin and eosin staining based assay. The data set is classed as organism-based. As to conditions: in vivo, po, 192 h, time 8 day.
Data set [17] in a line: Acute toxicity in KM mouse assessed as cell damage or necrosis in liver at 100 mg/kg, IG qa administered for 7 days and measured on day 8 by hematoxylin and eosin staining based assay. As to conditions: in vivo, po, 192 h, time 8 day. It counts as organism-based.
The target in data set [18] is Epidermal growth factor receptor (Homo sapiens, UniProt P00533). Briefly: biochemical.
Description: Inhibition of N-terminal GST tagged human recombinant EGFR (695 to end residues) expressed in baculovirus infected Sf9 cells using Poly (4:1 Glu, Tyr) as substrate incubated for 60 mins in presence of ATP by ADP-Glo luminescent assay
Another data set deals with L02. Briefly: Induction in apoptosis in human L02 cells assessed as early apoptotic cells at 1 uM incubated for 24 hrs by Annexin V-FITC/Propidium Iodide staining based flow cytometry analysis (reference value: 0.26 %). It counts as toxicity, cell-based. The conditions noted are these: l02, 24 h.
The test system of data set [19] is NCI-H1975. Briefly: Inhibition of colony formation in human NCI-H1975 cells at 1 uM preincubated for 48 hrs followed by media replacement for every 2 days for 14 days by crystal violet staining based microscopic analysis relative to control. The data set is classed as functional.
For data set [20], the target named is Proto-oncogene tyrosine-protein kinase receptor Ret (Homo sapiens) (UniProt P07949). Briefly: Inhibition of RET (unknown origin) at 10 uM.
Data set [21] is described as follows: Acute toxicity in KM mouse assessed as cell damage or necrosis in heart at 100 mg/kg, IG qa administered for 7 days and measured on day 8 by hematoxylin and eosin staining based assay. The data set is classed as organism-based. As to conditions: in vivo, po, 192 h, time 8 day.
A short description of data set [22]: Acute toxicity in KM mouse assessed as cell damage or necrosis in spleen at 100 mg/kg, IG qa administered for 7 days and measured on day 8 by hematoxylin and eosin staining based assay. It counts as organism-based. The conditions noted are these: in vivo, po, 192 h, time 8 day.

T1 sequence (P08581 whole entry): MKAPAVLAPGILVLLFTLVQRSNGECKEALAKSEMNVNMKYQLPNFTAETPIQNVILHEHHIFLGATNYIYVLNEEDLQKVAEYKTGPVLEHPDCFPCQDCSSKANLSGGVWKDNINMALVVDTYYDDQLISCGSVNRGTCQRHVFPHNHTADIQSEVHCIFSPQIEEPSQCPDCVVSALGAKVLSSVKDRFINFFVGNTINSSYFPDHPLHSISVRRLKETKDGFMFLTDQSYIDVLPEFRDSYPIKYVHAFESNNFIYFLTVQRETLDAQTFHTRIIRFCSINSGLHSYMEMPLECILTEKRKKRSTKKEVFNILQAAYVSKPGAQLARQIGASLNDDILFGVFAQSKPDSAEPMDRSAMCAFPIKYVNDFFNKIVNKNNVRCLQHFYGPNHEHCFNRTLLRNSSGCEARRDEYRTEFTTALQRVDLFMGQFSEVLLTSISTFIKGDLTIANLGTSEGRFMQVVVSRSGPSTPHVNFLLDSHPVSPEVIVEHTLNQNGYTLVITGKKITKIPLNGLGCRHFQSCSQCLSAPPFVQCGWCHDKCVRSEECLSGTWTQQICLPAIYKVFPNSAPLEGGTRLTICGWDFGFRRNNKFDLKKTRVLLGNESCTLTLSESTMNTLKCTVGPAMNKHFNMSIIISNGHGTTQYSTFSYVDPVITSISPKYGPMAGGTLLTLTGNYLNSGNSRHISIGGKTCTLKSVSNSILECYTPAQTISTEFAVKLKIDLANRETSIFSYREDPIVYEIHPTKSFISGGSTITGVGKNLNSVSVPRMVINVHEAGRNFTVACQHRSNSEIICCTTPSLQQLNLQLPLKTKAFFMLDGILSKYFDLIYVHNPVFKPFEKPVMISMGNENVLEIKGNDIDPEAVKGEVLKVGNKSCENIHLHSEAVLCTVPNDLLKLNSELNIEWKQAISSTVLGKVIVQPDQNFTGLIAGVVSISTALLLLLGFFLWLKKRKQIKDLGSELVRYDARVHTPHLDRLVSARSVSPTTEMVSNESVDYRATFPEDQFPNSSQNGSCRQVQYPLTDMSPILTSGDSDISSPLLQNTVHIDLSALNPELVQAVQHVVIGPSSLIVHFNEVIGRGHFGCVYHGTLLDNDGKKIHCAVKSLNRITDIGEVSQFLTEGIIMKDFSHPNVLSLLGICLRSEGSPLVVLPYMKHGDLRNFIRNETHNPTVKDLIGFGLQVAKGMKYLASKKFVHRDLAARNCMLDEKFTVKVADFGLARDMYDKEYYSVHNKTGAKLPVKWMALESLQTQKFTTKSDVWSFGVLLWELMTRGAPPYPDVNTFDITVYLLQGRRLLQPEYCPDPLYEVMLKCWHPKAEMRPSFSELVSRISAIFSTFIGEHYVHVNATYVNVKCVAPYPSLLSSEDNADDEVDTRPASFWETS

`C=CC(=O)Nc1cc2c(Oc3ccc(NC(=O)n4c(=O)c(-c5ccccc5)c(C)n4C)cc3F)cccc2cc1OC`: the Activity in the data set on A549 [1] is 6.65%; in the data set with A549 [3] it was 57.29%; in the data set on NCI-H1975 [7], 1.74%; with A549 [8] it was 53.03%; in the data set on A549 [10] it was “Dose-Dependent Effect”; in the data set on A549 [11], “Dose-Dependent Effect”. The Activity entry in data set [16] was “Non-Toxic”; in data set [17], “Non-Toxic”; in the data set on L02 it was 0.21%; in data set [21], “Non-Toxic”; in data set [22] it was “Non-Toxic”. Moreover, the IC50 (in general, the midpoint of a concentration-inhibition curve) with A549 [2] was determined as 1060 nM; in data set [9], 0.26 nM; in [18], 99.8 nM. The inhibition result in [4], in data set [14], in [15] and in data set [20] was “inactive” in each case. Besides, the inhibition (in general, the percentage by which the read-out fell short of the control) in [5] is > 90%; with A549 [13], “Dose-Dependent Effect”. For the same molecule, the inhibition entry in data set [6] is “Active”. Further, the viability at 2.5 µM with A549 [12] was 60.1%. Also, the inhibition at 1 µM in the data set on NCI-H1975 [19] was ~50%.
